The values below come from US9139524B2, “Fluorinated bridged spiro[2.4]heptane derivatives as ALX receptor agonists” (Actelion Pharmaceuticals Ltd., priority 2012, dated 2015).

SMILES strings stand for the structures. pEC50: −log10 of the molar value.

Series [1] deals with T1, human ALX receptor (Homo sapiens, UniProt P25090).
T1 construct: expressed in transfected cells; host or cells: HEK293 (HEK293-hALXR-Gα16)
T1 sequence (P25090 1-351): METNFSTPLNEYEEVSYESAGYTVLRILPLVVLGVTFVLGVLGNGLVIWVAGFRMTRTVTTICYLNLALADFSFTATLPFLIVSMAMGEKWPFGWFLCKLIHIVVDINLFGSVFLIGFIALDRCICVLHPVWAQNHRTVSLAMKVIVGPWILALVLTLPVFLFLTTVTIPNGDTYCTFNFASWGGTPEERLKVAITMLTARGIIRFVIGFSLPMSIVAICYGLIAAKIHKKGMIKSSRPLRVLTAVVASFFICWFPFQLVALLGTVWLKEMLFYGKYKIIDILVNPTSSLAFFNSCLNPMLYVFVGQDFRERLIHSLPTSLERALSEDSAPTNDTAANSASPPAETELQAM
The series is described as follows: Intracellular calcium measurements (FLIPR), ALX receptor agonistic activity. It counts as cell-based. To be noted: HEK293-hALXR-Gα16 cells; values normalized to WKYMVm 10 nM; read-out: EC50 (agonistic activity with respect to the ALX receptor). How it is done: The ALX receptor agonistic activities of the compounds of formula (I) are determined in accordance with the following experimental method.
Cells expressing recombinant human ALX receptor and the G-protein Gα16 (HEK293-hALXR-Gα16) were grown to 80% confluency in Growing Medium (GM). Cells were detached from culture dishes with a cell dissociation buffer (Invitrogen, 13151-014), and collected by centrifugation at 1′000 rpm at rt for 5 min in Assay Buffer (AB) (equal parts of Hank's BSS (Gibco, 14065-049) and DMEM without Phenol Red (Gibco, 11880-028)). After 60 min incubation at 37° C. under 5% CO2 in AB supplemented with 1 μM Fluo-4 (AM) (Invitrogen, F14202) and 20 mM HEPES (Gibco, 15630-056), the cells were washed and resuspended in AB. They were then seeded onto 384-well FLIPR assay plates (Greiner, 781091) at 50′000 cells in 70 μl per well and sedimented by centrifugation at 1′000 rpm for 1 min. Stock solutions of test compounds were made up at a concentration of 10 mM in DMSO, and serially diluted in AB to concentrations required for activation dose response curves. WKYMVm (Phoenix Peptides) was used as a reference agonist. A FLIPR Tetra instrument (Molecular Devices) was operated according to the manufacturer's standard instructions, adding 4 μl of test compound dissolved at 10 mM in DMSO and diluted prior to the experiment in assay buffer to obtain the desired final concentration. Changes in fluorescence were monitored before and after the addition of test compounds at lex=488 nm and lem=540 nm. Emission peak values above base level after compounds addition were exported after base line subtraction. Values were normalized to high-level control (WKYMVm compound, 10 nM final concentration) after subtraction of the base line value (AB addition).
In general terms: A change in cytosolic calcium serves as a functional read-out for many receptors and channels.

Series [2] in a line: Determination of pharmacokinetic parameters in rats after single oral or intravenous administration. The series is classed as in vivo. To be noted: Wistar, plasma, rat, p.o. 1 mg/kg; for bioavailability: oral, calculated with a reference AUC after iv administration of solutions at 1 mg/kg, read-out: F (bioavailability); for AUC: po, read-out: AUC (area under curve after p.o. administration). How it is done: The goal of the study was to evaluate the pharmacokinetics of compounds after a single oral administration or after an intravenous route in normal, conscious rats.
• Anaesthesia: Wistar rats were pretreated with 0.03 mg/kg Buprenorphine s.c. (an analgesic-stock solution at 0.03 mg/ml) and 30 minutes later they were anaesthetized with a mixture of 90 mg/kg Ketamine and 10 mg/kg Xylazine i.p. or under Isoflurane inhalation anesthesia. • Rat preparation: The top of the head and the neck were shaved and disinfected with Merfen and Betadine. • Surgery: While under (isoflurane) anaesthesia, an incision was made above 1.5 cm at the top of the head (between the ears) in order to fix the anchor button. A second incision was made above 1.5-2 cm on the neck (near the right clavicle). A catheter (ID/DI: 0.508 mm, Ulrich Swiss) was tunnelled with a trocar under the skin and an access port was fixed with 4-0 silk. The catheter was then filled with a heparinized saline solution (100 Ul/ml), clamped with a hemostat to prevent loss of saline, and the wound was closed with tissue adhesive (3M Vetbond). Next, the jugular vein was isolated and ligated cranially with 4-0 silk, a second ligature, placed caudal to the first ligature, was not tightened. Using iridectomy scissors, a V-shaped hole was cut in the vein, and the catheter was gently pushed into the vessel. All ligatures were then tied around the vessel and the catheters. A NaCl-heparin 100 Ul flush was made to test the blood flow. The wound was then closed with tissue adhesive and a suture. Flush again. • Post operative care: After the operation each animal was housed separately in a small box with food (directly on the floor of the box) and water ad libitum and access to solid drink. One to two days were allowed for recovery from surgery prior to the experiment. The day following the operation, animals were flushed with NaCl-heparin 100 Ul/mL and blood collection tubes were prepared with 10 μl EDTA added to each tube. • Experiment: Tested compounds were given at 1 mg/kg orally and intravenously. The oral formulation was as a solution in Gelatine (98% of a 7.5% Gelatine solution in Water and 2% DMSO) and the intravenous formulation was a solution in water with pH adjustment or in cyclodextrine (5% DMSO, 95% HPBCD30% (w/v)). After application of the test-compound (p.o. or i.v.), blood samples ([…]) were taken at different times. The samples were immediately put in ice before being centrifuged (4° C., 8 min, 16000 g). The plasma was then aspirated and placed into a 96 well plate. The plate was kept at −20° C. until analysis could be performed. • Plasma concentration of the compound was determined using a LC-MS/MS method.

With `O=C(N[C@H]1CCNC[C@H]1F)[C@H]1[C@H](C(=O)NCc2ccc(Br)cc2F)[C@@H]2CC[C@H]1C21CC1` (mixture of isomers) [Example 4, (1S,2R,3R,4R)—N^2-(4-Bromo-2-fluorobenzyl)-N^3-(cis-3-fluoropiperidin-4-yl)spiro[bicyclo[2.2.1]heptane-7,1′-cyclopropane]-2,3-dicarboxamide], the pEC50 (as a rule, the negative decadic logarithm of the EC50, by convention in mol/L) in series [1] is 7.90. The same measure, in the same setting: under `O=C(N[C@@H]1CNC[C@@H]1F)[C@H]1[C@H](C(=O)NCc2ccc(Br)cc2F)[C@@H]2CC[C@H]1C21CC1` (mixture of isomers) [Example 5, (1S,2R,3R,4R)—N^2-(4-Bromo-2-fluorobenzyl)-N^3-(cis-4-fluoropyrrolidin-3-yl)spiro[bicyclo[2.2.1]heptane-7,1′-cyclopropane]-2,3-dicarboxamide] stands 6.52; under `O=C(N[C@@H]1CNC[C@H]1F)[C@H]1[C@H](C(=O)NCc2ccc(Br)cc2F)[C@@H]2CC[C@H]1C21CC1` (mixture of isomers) [Example 6, (1S,2R,3R,4R)—N^2-(4-Bromo-2-fluorobenzyl)-N^3-(trans-4-fluoropyrrolidin-3-yl)spiro[bicyclo[2.2.1]heptane-7,1′-cyclopropane]-2,3-dicarboxamide], 8.35; under `O=C(N[C@@H]1CCNC[C@H]1F)[C@H]1[C@H](C(=O)NCc2ccc(Br)cc2F)[C@@H]2CC[C@H]1C21CC1` (single isomer, unassigned; diastereoisomer 1) [Example 2], 8.72.

Take `O=C(N[C@@H]1CCNC[C@H]1F)[C@H]1[C@H](C(=O)NCc2ccc(Br)cc2F)[C@@H]2CC[C@H]1C21CC1` (single isomer, unassigned; diastereoisomer 2) [Example 3]: in series [1], the pEC50 is 8.70. Also, in series [2], the bioavailability (commonly dose-corrected exposure relative to a reference, in per cent) was 12% and the AUC stood at 49.9 ng·h/mL. `O=C(NC1CCNCC1(F)F)[C@H]1[C@H](C(=O)NCc2ccc(Br)cc2F)[C@@H]2CC[C@H]1C21CC1` (stereo partly drawn) [Example 1, (1S,2R,3R,4R)—N^2-(4-Bromo-2-fluorobenzyl)-N^3-(3,3-difluoropiperidin-4-yl)spiro[bicyclo[2.2.1]heptane-7,1′-cyclopropane]-2,3-dicarboxamide]: the pEC50 in series [1] was 7.39. `O=C(NC1CCNCC1)[C@H]1[C@H](C(=O)NCc2ccc(Br)cc2F)[C@@H]2CC[C@H]1C21CC1` [Reference Example 2, (1S,2R,3R,4R)—N^2-(4-Bromo-2-fluorobenzyl)-N^3-(piperidin-4-yl)spiro[bicyclo[2.2.1]heptane-7,1′-cyclopropane]-2,3-dicarboxamide, reference compound]: in series [2], the bioavailability was 0.3% and the AUC turned out to be 6.34 ng·h/mL.
